Laboratory results: publication PMC7156458, “Synthetic biology based construction of biological activity-related library of fungal decalin-containing diterpenoid pyrones” (Nature Communications, 2020)
Where two headings read alike, the source gives them in different places.

Key:
MCF-7 cells = assay: cell cytotoxic effects against MCF-7 cells (72 h), A490; assay type: cell-based, human; conditions: MCF-7, 72 h
[1] = cytotoxicity in Drosophila DL1 cells; assay type: cell-based; conditions: Drosophila, DL1 cells (embryonic macrophage-derived), DL1 cells
Experimental: (§1) We screened the DDPs on the Drosophila assay system for cytotoxicity, inhibitory activity of innate immune signalling and insecticidal activity. The cytotoxicity of the DDPs was evaluated using two cell lines, embryonic macrophage-derived DL1 cells[58]–[60] and larval blood cell-derived l(2)mbn cells, and their IC50 values are listed in Supplementary Table 23.

DL1 cells = assay: cytotoxicity in Drosophila DL1 cells; assay type: cell-based; conditions: DL1 cells; for IC50: Drosophila melanogaster, cytotoxicity
Experimental: as §1

[2] = cytotoxicity in Drosophila l(2)mbn cells; assay type: cell-based; conditions: Drosophila, l(2)mbn cells (larval blood cell-derived)
Experimental: as §1

l(2)mbn cells = assay: cytotoxicity in Drosophila l(2)mbn cells; assay type: cell-based; conditions: for Luminescence Raw1: replicate 1; for Luminescence Raw2: replicate 2; for IC50: Drosophila melanogaster, cytotoxicity
Experimental: as §1

[3] = system: human immunodeficiency virus-1 (HIV-1); assay: anti-HIV MAGI assay; assay type: cell-based; conditions: Human immunodeficiency virus 1, MAGI, anti-HIV
From the text: We examined the inhibitory activities of DDPs against various species of bacteria (both gram-negative and gram-positive bacteria), fungi and viruses. […] In contrast, preliminary screening of the DDPs for anti-viral agents with hepatitis B virus (HBV), measles virus (MV), Epstein-Barr virus (EBV), herpes simplex virus (HSV) and human immunodeficiency virus-1 (HIV-1) indicated their selective inhibition of HIV.

MAGI cells = assay: cytotoxicity in the anti-HIV assay (CC50); assay type: cell-based; conditions: single determinations
[4] = replicate 1, relative to DMSO 1%, read-out: % viability, viability 1
[5] = replicate 2, relative to DMSO 1%, read-out: % viability, viability 2
[6] = average of two replicates, read-out: IC50 Average
[7] = replicate 1, read-out: IC50 (1)
[8] = replicate 2, read-out: IC50 (2)

In the case of `C=C1CC[C@@H]2[C@](C)(CC[C@H]3O[C@H](C=C(C)C)C[C@@]23C)[C@@H]1Cc1c(O)c(C)c(C)oc1=O` [Compound 10, higginsianin A], the viability at 0.1 µM (MCF-7 cells; Homo sapiens, MCF7, 72 h, 0.1 µM (DMSO 0.002%), read-out: A490 (control =1) ave) is reported as 62.9%, the viability at 1 µM (MCF-7 cells; Homo sapiens, MCF7, 72 h, 1 µM (DMSO 0.02%), read-out: A490 (control =1) ave) is reported as 94.3% and the viability at 10 µM (MCF-7 cells; Homo sapiens, MCF7, 72 h, 10 µM (DMSO 0.2%), read-out: A490 (control =1) ave) is reported as 17.9%. For the same molecule, the A490 ave (MCF-7 cells; 0.1 µM (DMSO 0.002%), control 1.064) was 0.669, the A490 ave (MCF-7 cells; 1 µM (DMSO 0.02%), control 1.104) was 1.042 and the A490 ave (MCF-7 cells; 10 µM (DMSO 0.2%), control 1.049) was 0.188. For the same molecule, the viability at 0.04 µM [1, 4] was 82.7%, the viability at 0.04 µM [1, 5] was 85.6% and the viability at 0.2 µM [1, 4] was 36.2%. The viability at 0.2 µM [1, 5] was 35%, the viability at 1 µM [1, 4] was 7.23% and the viability at 1 µM [1, 5] was 6.51%. The viability at 4 µM [1, 4] was 4.76%, the viability at 4 µM [1, 5] was 6.46% and the viability at 10 µM [1, 4] was 7.6%. It also gave a viability at 10 µM [1, 5] of 6.95%, a viability at 20 µM [1, 4] of 5.78% and a viability at 20 µM [1, 5] of 5.81%. For the same molecule, the “Luminescence Raw1” value (DL1 cells; 0.04 µM, replicate 1) was 1703467, the “Luminescence Raw2” value (DL1 cells; 0.04 µM, replicate 2) was 1762974 and the “Luminescence Raw1” value (DL1 cells; 0.2 µM, replicate 1) was 745666. The “Luminescence Raw2” value (DL1 cells; 0.2 µM, replicate 2) was 721146, the “Luminescence Raw1” value (DL1 cells; 1 µM, replicate 1) was 148910 and the “Luminescence Raw2” value (DL1 cells; 1 µM, replicate 2) was 134127. For the same molecule, the “Luminescence Raw1” value (DL1 cells; 4 µM, replicate 1) was 98071, the “Luminescence Raw2” value (DL1 cells; 4 µM, replicate 2) was 133046 and the “Luminescence Raw1” value (DL1 cells; 10 µM, replicate 1) was 156482. The “Luminescence Raw2” value (DL1 cells; 10 µM, replicate 2) was 143141, the “Luminescence Raw1” value (DL1 cells; 20 µM, replicate 1) was 118984 and the “Luminescence Raw2” value (DL1 cells; 20 µM, replicate 2) was 119705. It also gave an IC50 (DL1 cells; [6]) of 133 nM, an IC50 (DL1 cells; average±SEM, read-out: IC50) of 130 ± 10 nM and an IC50 (DL1 cells; [7]) of 132 nM. It also gave an IC50 (DL1 cells; [8]) of 133 nM, a viability at 0.04 µM [2, 4] of 113% and a viability at 0.04 µM [2, 5] of 127%. For the same molecule, the viability at 0.2 µM [2, 4] was 108%, the viability at 0.2 µM [2, 5] was 125% and the viability at 1 µM [2, 4] was 20.3%. For the same molecule, the viability at 1 µM [2, 5] was 41.9%, the viability at 4 µM [2, 4] was 7.39% and the viability at 4 µM [2, 5] was 9.05%. For the same molecule, the viability at 10 µM [2, 4] was 6.87%, the viability at 10 µM [2, 5] was 7.85% and the viability at 20 µM [2, 4] was 5.83%. For the same molecule, the viability at 20 µM [2, 5] was 6.46%, the “Luminescence Raw1” value (l(2)mbn cells; 0.04 µM) was 2899849 and the “Luminescence Raw2” value (l(2)mbn cells; 0.04 µM) was 3256235. The “Luminescence Raw1” value (l(2)mbn cells; 0.2 µM) was 2762422, the “Luminescence Raw2” value (l(2)mbn cells; 0.2 µM) was 3200684 and the “Luminescence Raw1” value (l(2)mbn cells; 1 µM) was 521407. For the same molecule, the “Luminescence Raw2” value (l(2)mbn cells; 1 µM) was 1075282, the “Luminescence Raw1” value (l(2)mbn cells; 4 µM) was 189680 and the “Luminescence Raw2” value (l(2)mbn cells; 4 µM) was 232227. For the same molecule, the “Luminescence Raw1” value (l(2)mbn cells; 10 µM) was 176340, the “Luminescence Raw2” value (l(2)mbn cells; 10 µM) was 201579 and the “Luminescence Raw1” value (l(2)mbn cells; 20 µM) was 149658. For the same molecule, the “Luminescence Raw2” value (l(2)mbn cells; 20 µM) was 165883, the IC50 (l(2)mbn cells; [6]) was 630 nM and the IC50 (l(2)mbn cells; average±SEM, read-out: IC50) was 630 ± 100 nM. For the same molecule, the IC50 (l(2)mbn cells; [7]) was 529 nM, the IC50 (l(2)mbn cells; [8]) was 734 nM and the EC50 ([3]; MAGI assay, read-out: EC50) was < 200 nM. For the same molecule, the EC50 ([3]; average of numeric determinations, read-out: Avg. EC50) was 53.2 nM and the Cytotoxicity (MAGI cells) was >10 µM.
